Measurements from patent US12195479B2, “Five- and six-membered compound, and preparation method therefor and pharmaceutical composition and use thereof” (HANGZHOU POLYMED BIOPHARMACEUTICALS, INC., priority 2021, dated 2025).
Blank lines part the entries; values can stand above or below the molecule they belong to.

Key:
FLT3 kinase = molecular target: T1, FLT3 kinase (Homo sapiens, UniProt P36888); assay: Kinase inhibition, fluorescence microfluidic mobility shift assay (FLT3); format: biochemical; settings: substrate peptide FAM-P2 3 μM, ATP 97 μM; one hour at 28° C.; assayed in duplicate
T1 sequence (P36888 564-993): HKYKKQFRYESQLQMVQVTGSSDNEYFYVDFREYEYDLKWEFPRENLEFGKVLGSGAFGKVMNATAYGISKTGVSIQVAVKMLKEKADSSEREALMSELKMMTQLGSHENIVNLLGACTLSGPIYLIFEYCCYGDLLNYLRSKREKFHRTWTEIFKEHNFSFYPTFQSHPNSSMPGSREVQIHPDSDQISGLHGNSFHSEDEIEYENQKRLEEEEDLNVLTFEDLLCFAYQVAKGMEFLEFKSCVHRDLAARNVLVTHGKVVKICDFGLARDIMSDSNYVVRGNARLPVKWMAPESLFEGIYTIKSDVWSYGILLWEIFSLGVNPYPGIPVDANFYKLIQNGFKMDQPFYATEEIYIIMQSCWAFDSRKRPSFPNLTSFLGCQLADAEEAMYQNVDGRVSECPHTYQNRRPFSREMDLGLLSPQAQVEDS
Description: Based on the experimental method of fluorescence microfluidic mobility shift assay, the IC50 value of the compound for competitive binding of ATP to kinases IRAK4 and FLT3 was determined. The initial detection concentration of the compound was 10 μM, which was diluted to 0.38 nM with a 4-fold gradient and assayed in duplicate. In this case, commercially available staurosporine was the standard control for the assay.
Information on reagents and consumables is as follows: • IRAK4 kinase (Carna, Cat. No. 09-145, Lot. No. 14CBS-0020 H) • FLT3 kinase (Carna, Cat. No. 08-154, Lot. No. 07CBS-2350) • Substrate peptide FAM-P2 (GL Biochem, Cat. No. 112394, Lot. No. P131014-XP112394) • Substrate peptide FAM-P8 (GL Biochem, Cat. No. 112396, Lot. No. P170731-SY112396) • ATP (adenosine triphosphate, Sigma, Cat. No. A7699-1G, CAS No. 987-65-5) • DMSO (dimethyl sulfoxide, Sigma, Cat. No. D2650) • EDTA (ethylenediaminetetraacetic acid, Sigma, Cat. No. E5134, CAS No. 60-00-4) • Staurosporine (Selleckchem, Cat. No. 51421) • HEPES (4-(2-Hydroxyethyl)-1-piperazineethanesulfonic acid, Gibco, Cat. No. 15630-080) • Brij-35 solution (Polyoxyethylene lauryl ether, Sigma, Cat. No. B41840-100 mL) • DTT (dithiothreitol, Sigma, Cat. No. D0632-20G) • 0.2% Coating Reagent #3 (0.2% coating reagent, Perkin Elmer, Cat. No. 760050) • 96-well plate (Corning, Cat. No. 3365) • 384-well plate (Corning, Cat. No. 3573) Experimental operation method: • 1) FLT3 and IRAK4 kinases were dissolved in the kinase buffer (50 mM HEPES pH 7.5, 10 mM MgCl2, 2 mM DTT, and 0.01% Brij-35) at final concentrations of 0.9 nM, 30 nM, and 6 nM, respectively. • 2) The substrate peptide FAM-P2 and the substrate peptide FAM-P8, together with ATP, were dissolved in the above kinase buffer, respectively, where the final concentrations of the substrate peptide FAM-P2 and ATP for the determination of FLT3 were 3 μM and 97 μM, respectively; and the final concentrations of the substrate peptide FAM-P8 and ATP for the determination of IRAK4 were 3 μM and 10 μM, respectively. • 3) Compound dilution: The compound was first diluted to 50 μM, and then diluted downward with DMSO in a 4-fold gradient. In this case, the solution without compound and kinase served as the blank control, corresponding to the “minimum value” shown below; the solution without compound but containing kinase, adenosine triphosphate, DMSO, and the buffer served as the positive control, corresponding to the “maximum value” shown below. • 4) Kinase reaction and termination: 10 μL of the kinase buffer was added to a 384-well plate containing 5 μL of the compound to be tested, and the mixture was incubated for 10 minutes at room temperature; another 10 μL, of buffer containing the substrate peptide and adenosine triphosphate was added to the 384-well plate, and after incubation for one hour at 28° C., 25 μL, of termination solution (100 mM HEPES pH 7.5, 50 mM EDTA, 0.2% Coating Reagent #3, and 0.015% Brij-35) was added to each well for reaction termination. • 5) Data reading: CaliperEZ Reader II instrument was used to read the conversion rate data. Setting conditions: downstream voltage as −500 V, upstream voltage as −2250 V, base pressure as −0.5 PSI, and screening pressure as −1.2 PSI. • 6) Data calculation: the conversion rate data was copied from CaliperEZ Reader II, and the conversion rate was converted into inhibition rate data.

IRAK4 kinase = molecular target: T2, IRAK4 kinase (Homo sapiens, UniProt Q9NWZ3); assay: Kinase inhibition, fluorescence microfluidic mobility shift assay (IRAK4); format: biochemical; settings: substrate peptide FAM-P8 3 μM, ATP 10 μM; one hour at 28° C.; assayed in duplicate
T2 sequence (Q9NWZ3 1-460): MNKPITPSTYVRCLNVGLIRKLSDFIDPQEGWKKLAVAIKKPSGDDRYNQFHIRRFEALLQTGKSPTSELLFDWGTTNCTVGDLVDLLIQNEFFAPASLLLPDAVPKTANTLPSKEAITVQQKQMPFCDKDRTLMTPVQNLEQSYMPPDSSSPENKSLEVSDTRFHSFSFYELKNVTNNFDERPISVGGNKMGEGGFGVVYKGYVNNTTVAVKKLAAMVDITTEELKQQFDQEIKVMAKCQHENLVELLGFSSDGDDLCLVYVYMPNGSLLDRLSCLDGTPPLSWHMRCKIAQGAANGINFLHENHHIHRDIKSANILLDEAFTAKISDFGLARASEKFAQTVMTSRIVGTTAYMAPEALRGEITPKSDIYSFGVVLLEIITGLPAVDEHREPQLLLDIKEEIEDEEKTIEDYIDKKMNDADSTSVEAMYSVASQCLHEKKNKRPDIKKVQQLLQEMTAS

MV4-11 cells = assay: Cytotoxicity against MV4-11 cells (CellTiter-Glo); format: cell-based; settings: Homo sapiens, incubated for 72 hours, CellTiter-Glo chemiluminescence
Description: Determination of the IC50 Value of the Compound's Cytotoxicity Against MV4-11 Cells
MV-4-11 cells were cultured with IMDM complete medium (IMDM+10% fetal bovine serum+1% Penicillin-Streptomycin, a mixture of penicillin-streptomycin). • 2. MV-4-11 cells in good condition were collected and washed twice with DPBS ([…] phosphate buffered saline solution). • 3. MV-4-11 cells were resuspended with IMDM complete medium, the cell density was adjusted to 1.11×10^6 cells/mL, and the MV-4-11 cells were added to 96-well plates at 90 μL per well. • 4. A compound solution with 10-fold concentration was prepared with IMDM complete medium, 10 μL of the compound solution with 10-fold concentration was added to the cells in the 96-well plate, mixed well, and then the 96-well plate was placed in a 5% CO2 incubator at 37° C. and incubated for 72 hours. • 5. After the incubation, the 96-well plate was taken out and equilibrated for 30 minutes at room temperature. Then 100 μL of CellTiter Glo reagent was added to each well and mixed on a horizontal shaker for 2 minutes. • 6. The 96-well plate was removed, equilibrated at room temperature for 10 minutes, and the chemiluminescence value was detected on a microplate reader.

SMILES: COc1cc2nn(C3CCNCC3)cc2cc1NC(=O)c1ccn(-c2ccnc(C)c2)n1 [II-11C]
IC50 (FLT3 kinase): 0.75 nM | IC50 (IRAK4 kinase): 6.9 nM | IC50 (MV4-11 cells): 4.6 nM

SMILES: Cc1cc(-c2nc(C(=O)Nc3cc4oc(N5CC6CC5CO6)nc4nc3N3CCC(O)C3)co2)ccn1 (stereo not shown) [II-125]
IC50 (IRAK4 kinase): 82 nM

SMILES: COc1cn2nc(C3CCNCC3)cc2cc1NC(=O)c1coc(-c2ccnc(C)c2)n1 [II-3F]
IC50 (FLT3 kinase): 2.3 nM | IC50 (IRAK4 kinase): 6 nM | IC50 (MV4-11 cells): 15 nM

SMILES: CC(C)(O)c1cc2nn(C3CCOCC3)cc2cc1NC(=O)c1coc(-c2ccnc(C(F)(F)F)c2)n1 [II-121]
IC50 (FLT3 kinase): 3.5 nM | IC50 (IRAK4 kinase): 9.1 nM | IC50 (MV4-11 cells): 33 nM

SMILES: Cc1cc(-c2nc(C(=O)Nc3cc4oc(N5CCOCC5)nc4nc3C(C)(C)O)co2)ccn1 [II-122]
IC50 (FLT3 kinase): 6.23 nM | IC50 (IRAK4 kinase): 14.1 nM | IC50 (MV4-11 cells): 33 nM

SMILES: COc1cc2nn(CCC3CCNC3=O)cc2cc1NC(=O)c1coc(-c2ccnc(C)c2)n1 (stereo not shown) [II-2]
IC50 (FLT3 kinase): 0.52 nM | IC50 (IRAK4 kinase): 8.4 nM | IC50 (MV4-11 cells): 14.8 nM

SMILES: Cc1cc(-c2nc(C(=O)Nc3cc4oc(N5CCN(CC(F)(F)F)CC5)nc4nc3N3CCC(O)C3)co2)ccn1 (stereo not shown) [II-128]
IC50 (FLT3 kinase): 13 nM | IC50 (IRAK4 kinase): 44 nM

SMILES: COc1cc2nn(CCC3CCNC3=O)cc2cc1NC(=O)c1coc(-c2ccnc(C(F)(F)F)c2)n1 (stereo not shown) [II-8]
IC50 (FLT3 kinase): 9.5 nM | IC50 (IRAK4 kinase): 25 nM

SMILES: Cc1cc(-c2nc(C(=O)Nc3cc4cn(C5CCC(O)CC5)nc4cc3C(C)(C)O)co2)ccn1 (stereo not shown) [II-54]
IC50 (FLT3 kinase): 0.78 nM | IC50 (IRAK4 kinase): 23 nM | IC50 (MV4-11 cells): 35.3 nM

SMILES: Cc1cc(-c2nc(C(=O)Nc3cc4cn(CC5(F)COC5)nc4cc3C(C)(C)O)co2)ccn1 [II-115]
IC50 (FLT3 kinase): 0.25 nM | IC50 (IRAK4 kinase): 11 nM | IC50 (MV4-11 cells): 2.5 nM

SMILES: Cc1cc(-c2nc(C(=O)Nc3cc4cn(CC5(F)CNC5)nc4cc3C(C)(C)O)co2)ccn1 [II-108]
IC50 (FLT3 kinase): 0.29 nM | IC50 (IRAK4 kinase): 11.7 nM | IC50 (MV4-11 cells): 22 nM

SMILES: COc1cc2nn(CCC3CCNC3=O)cc2cc1NC(=O)c1coc(Br)n1 (stereo not shown) [II-4]
IC50 (FLT3 kinase): 12 nM | IC50 (IRAK4 kinase): 72 nM

Further lines, with some results ahead:

IC50 (FLT3 kinase): 2.2 nM | IC50 (IRAK4 kinase): 2.7 nM
SMILES: CC(C)(O)CCn1cc2cc(NC(=O)c3coc(-c4ccnc(C(F)(F)F)c4)n3)c(C(C)(C)O)cc2n1 [II-93]
IC50 (MV4-11 cells): 21 nM

IC50 (FLT3 kinase): 0.44 nM | IC50 (IRAK4 kinase): 5.2 nM
SMILES: Cc1cc(-c2nc(C(=O)Nc3cc4cn(CCC(C)(C)O)nc4cc3N3CCC(F)(F)C3)co2)ccn1 [II-98]
IC50 (MV4-11 cells): 0.3 nM

IC50 (FLT3 kinase): 0.19 nM | IC50 (IRAK4 kinase): 3.5 nM
SMILES: COc1cc2nn(C3CCNCC3)cc2cc1NC(=O)c1nc(-c2ccnc(C)c2)c[nH]1 [II-5C]
IC50 (MV4-11 cells): 0.78 nM

IC50 (FLT3 kinase): 0.22 nM | IC50 (IRAK4 kinase): 3.7 nM
SMILES: COc1cc2nn(C3CCS(=O)(=O)CC3)cc2cc1NC(=O)c1coc(-c2ccnc(C)c2)n1 [II-96]
IC50 (MV4-11 cells): 6.5 nM

IC50 (FLT3 kinase): 4 nM | IC50 (IRAK4 kinase): 5.54 nM
SMILES: [2H]C([2H])([2H])C(O)(CCn1cc2cc(NC(=O)c3coc(-c4ccnc(C(F)(F)F)c4)n3)c(C(C)(C)O)cc2n1)C([2H])([2H])[2H] [II-117]
IC50 (MV4-11 cells): 23.2 nM

IC50 (FLT3 kinase): 1.3 nM | IC50 (IRAK4 kinase): 6.5 nM
SMILES: COc1cc2nc(C3CCNCC3)cn2cc1NC(=O)c1coc(-c2ccnc(C)c2)n1 [II-15C]
IC50 (MV4-11 cells): 8.2 nM

IC50 (FLT3 kinase): 0.26 nM | IC50 (IRAK4 kinase): 5.9 nM
SMILES: Cc1cc(-c2nc(C(=O)Nc3cc4cn(C5CC6CCC(C5)O6)nc4cc3C(C)(C)O)co2)ccn1 (stereo not shown) [II-114]
IC50 (MV4-11 cells): 1.3 nM

IC50 (FLT3 kinase): 0.32 nM | IC50 (IRAK4 kinase): 5.1 nM
SMILES: Cc1cc(-c2nc(C(=O)Nc3cc4cn(CCC(C)(C)O)nc4cc3C(C)(C)O)co2)ccn1 [II-49]
IC50 (MV4-11 cells): 5 nM

IC50 (FLT3 kinase): 0.44 nM | IC50 (IRAK4 kinase): 6.4 nM
SMILES: COc1cc2nn(C3CCNCC3)cc2cc1NC(=O)c1coc(-c2ccnc(C(F)(F)F)c2)n1 [II-13C]
IC50 (MV4-11 cells): 14.6 nM
